US11000033B2, “Ketone or oxime compound, and herbicide” (NISSAN CHEMICAL CORPORATION, priority 2014, dated 2021)

How the values were obtained:
Cyperus difformis = assay: Test Example 3: herbicidal effect by foliage application, Wagner pot (symbol E); assay type: in vivo; conditions: application herbicide amount 320 g/ha
How it was run: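 The compound, formulated as an emulsion and diluted with water to a predetermined rate, is applied uniformly to leaves of two-week-old seedlings growing in submerged alluvial soil at 25–30 °C. Rice is included. Each plant is assessed 3 weeks later using defined criteria.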

Veronica persica = assay: Test Example 4: herbicidal effect by soil treatment (symbol R); assay type: in vivo
How it was run: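 Seeds were sown in sterilized diluvial soil, covered with about 1.5 cm of soil, and the soil surface was sprayed with a water-diluted emulsion of the compound at a predetermined rate. Plants grew in a greenhouse at 25° C. to 30° C.; effects were scored visually 3 weeks after application.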

[1] = application herbicide amount 320 g/ha

Structure (SMILES)	herbicidal effect on E, grade 0-5 (Cyperus difformis)	R: Veronica persica, herbicidal effect grade (Veronica persica; [1])	R: Veronica persica, herbicidal effect grade (Veronica persica; 320 g/ha)
CON=C(C)C1CC(O)=C(c2c(C)cc(C)cc2C)C1=O (mixture of isomers) [3-002]	0 (Herbicidal ratio of 5% or lower (almost no effect))	0 (Herbicidal ratio of 5% or lower (almost no effect))	
CON=C(C)CC1CC(O)=C(c2c(C)cc(C#CCO)cc2C)C1=O (mixture of isomers) [6-025]	4 (Herbicidal ratio of 70% or higher and lower than 90%)	0 (Herbicidal ratio of 5% or lower (almost no effect))	
CON=C(C)CC1CC(OC(=O)OCc2ccccc2)=C(c2c(C)cc(C)cc2C)C1=O (stereo not drawn) [1-145]			3 (Herbicidal ratio of 40% or higher and lower than 70%)
CCOC(=O)C(C(=O)CC1CC1)C1CC(O)=C(c2c(C)cc(C)cc2C)C1=O (stereo not drawn) [2-025]	0 (Herbicidal ratio of 5% or lower (almost no effect))	0 (Herbicidal ratio of 5% or lower (almost no effect))	
C=CCN(CC=C)C(=O)OC1=C(c2c(C)cc(C)cc2C)C(=O)C(CC(C)=NOC)C1 (stereo not drawn) [1-153]	4 (Herbicidal ratio of 70% or higher and lower than 90%)		0 (Herbicidal ratio of 5% or lower (almost no effect))
CON=C(C)CC1CC(O)=C(c2c(C)cc(-n3cc(Cl)cn3)cc2C)C1=O (mixture of isomers) [6-004]	5 (Herbicidal ratio of 90% or more (almost completely withered))		
CON=C(C)CC1CC(OC(=O)c2ccc(S(C)(=O)=O)c(C(=O)OC)c2Cl)=C(c2c(C)cc(C)cc2C)C1=O (stereo not drawn) [1-162]	5 (Herbicidal ratio of 90% or more (almost completely withered))		0 (Herbicidal ratio of 5% or lower (almost no effect))
CON=C(C)CC1CC(OC(=O)N2CCCCC2)=C(c2c(C)cc(C)cc2C)C1=O (stereo not drawn) [1-151]			0 (Herbicidal ratio of 5% or lower (almost no effect))
CON=C(C)CC1CC(OC(=O)C(C)(C)c2ccc(Cl)cc2)=C(c2c(C)cc(C)cc2C)C1=O (stereo not drawn) [1-148]	4 (Herbicidal ratio of 70% or higher and lower than 90%)		
CON=C(C)CC1CC(OC(=O)c2ccccc2C(F)(F)F)=C(c2c(C)cc(C)cc2C)C1=O (stereo not drawn) [1-154]	5 (Herbicidal ratio of 90% or more (almost completely withered))		0 (Herbicidal ratio of 5% or lower (almost no effect))
CC(=O)C(C(C)=O)C1CC(O)=C(c2c(C)cc(C)cc2C)C1=O (stereo not drawn) [2-002]	0 (Herbicidal ratio of 5% or lower (almost no effect))		0 (Herbicidal ratio of 5% or lower (almost no effect))
CON=C(C)CC1CC(OS(=O)(=O)CC[Si](C)(C)C)=C(c2c(C)cc(C)cc2C)C1=O (stereo not drawn) [1-144]			0 (Herbicidal ratio of 5% or lower (almost no effect))
CC#Cc1cc(C)c(C2=C(O)CC(CC(C)=NOC)C2=O)c(CC)c1 (mixture of isomers) [6-006]	5 (Herbicidal ratio of 90% or more (almost completely withered))	2 (Herbicidal ratio of 20% or higher and lower than 40%)	
CON=C(C)CC1CC(OC(=O)c2c(Cl)nn(C)c2Cl)=C(c2c(C)cc(C)cc2C)C1=O (stereo not drawn) [1-160]	5 (Herbicidal ratio of 90% or more (almost completely withered))		0 (Herbicidal ratio of 5% or lower (almost no effect))
COC(=O)C(C(C)=O)C1CC(O)=C(c2c(C)cc(C)cc2C)C1=O (stereo not drawn) [2-003]	4 (Herbicidal ratio of 70% or higher and lower than 90%)		
CON=C(C)CC1CC(O)=C(c2c(C)cc(-c3cccc(Cl)c3)cc2C)C1=O (mixture of isomers) [6-034]	4 (Herbicidal ratio of 70% or higher and lower than 90%)	4 (Herbicidal ratio of 70% or higher and lower than 90%)	
C#CCOC1=C(c2c(C)cc(C)cc2C)C(=O)C(CC(C)=NOC)C1 (stereo not drawn) [1-008]	4 (Herbicidal ratio of 70% or higher and lower than 90%)		
Cc1cc(C)c(C2=C(O)CC(CC(=O)C(C)C)C2=O)c(C)c1 (stereo not drawn) [2-016]	4 (Herbicidal ratio of 70% or higher and lower than 90%)		
CCOC(=O)C(C(=O)C(F)(F)F)C1CC(O)=C(c2c(C)cc(C)cc2C)C1=O (stereo not drawn) [2-010]	0 (Herbicidal ratio of 5% or lower (almost no effect))	0 (Herbicidal ratio of 5% or lower (almost no effect))	
CCC(CCC1CC(O)=C(c2c(C)cc(C)cc2C)C1=O)=NOC (mixture of isomers) [4-001]	0 (Herbicidal ratio of 5% or lower (almost no effect))		
CON=C(C)CC1CC(OS(=O)(=O)C2CC2)=C(c2c(C)cc(C)cc2C)C1=O (stereo not drawn) [1-143]			0 (Herbicidal ratio of 5% or lower (almost no effect))
CON=CC1CC(O)=C(c2c(C)cc(C)cc2C)C1=O (mixture of isomers) [3-001]	0 (Herbicidal ratio of 5% or lower (almost no effect))	0 (Herbicidal ratio of 5% or lower (almost no effect))	
CON=C(C)CC1CC(OS(=O)(=O)c2ccc(C)cc2)=C(c2c(C)cc(C)cc2C)C1=O (stereo not drawn) [1-161]	4 (Herbicidal ratio of 70% or higher and lower than 90%)		0 (Herbicidal ratio of 5% or lower (almost no effect))

Structure (SMILES)	herbicidal effect on E, grade 0-5 (Cyperus difformis)	R: Veronica persica, herbicidal effect grade (Veronica persica; [1])	R: Veronica persica, herbicidal effect grade (Veronica persica; 320 g/ha)
CCOC(=O)C(C(=O)C(C)C)C1CC(O)=C(c2c(C)cc(C)cc2C)C1=O (stereo not drawn) [2-009]	0 (Herbicidal ratio of 5% or lower (almost no effect))		
CON=C(C)CC1CC(OCCSC)=C(c2c(C)cc(C)cc2C)C1=O (stereo not drawn) [1-011]	0 (Herbicidal ratio of 5% or lower (almost no effect))		
CON=C(C)CC1CC(OC(=O)C(C)Oc2ccc(Oc3ccc(Cl)cc3Cl)cc2)=C(c2c(C)cc(C)cc2C)C1=O (stereo not drawn) [1-163]	5 (Herbicidal ratio of 90% or more (almost completely withered))		0 (Herbicidal ratio of 5% or lower (almost no effect))
CCOC(=O)C(CC)(C(C)=O)C1CC(O)=C(c2c(C)cc(C)cc2C)C1=O (stereo not drawn) [2-012]	0 (Herbicidal ratio of 5% or lower (almost no effect))	0 (Herbicidal ratio of 5% or lower (almost no effect))	
CCCC(=O)C(C(=O)OC)C1CC(O)=C(c2c(C)cc(C)cc2C)C1=O (stereo not drawn) [2-020]	0 (Herbicidal ratio of 5% or lower (almost no effect))	0 (Herbicidal ratio of 5% or lower (almost no effect))	
CON=C(C)CC1CC(O)=C(c2c(C)cc(C)cc2Br)C1=O (stereo not drawn) [6-038]	5 (Herbicidal ratio of 90% or more (almost completely withered))	1 (Herbicidal ratio of 5% or higher and lower than 20%)	
CON=C(C)CC1CC(OCC(=O)OC)=C(c2c(C)cc(C)cc2C)C1=O (stereo not drawn) [1-012]	0 (Herbicidal ratio of 5% or lower (almost no effect))		
CON=C(C)CC1CC(OS(=O)(=O)CCCCl)=C(c2c(C)cc(C)cc2C)C1=O (stereo not drawn) [1-142]			0 (Herbicidal ratio of 5% or lower (almost no effect))
CON=C(C)CC1CC(OC(=O)Cc2ccc(OC)cc2)=C(c2c(C)cc(C)cc2C)C1=O (stereo not drawn) [1-156]	5 (Herbicidal ratio of 90% or more (almost completely withered))		
CC(=O)CC1CC(OC(=O)C(C)(C)C)=C(c2c(C)cc(C)cc2C)C1=O (stereo not drawn) [2-018]	5 (Herbicidal ratio of 90% or more (almost completely withered))		
Cc1cc(C)c(C2=C(O)CC(CC(=O)Cc3ccccc3)C2=O)c(C)c1 (stereo not drawn) [2-015]	0 (Herbicidal ratio of 5% or lower (almost no effect))		
C=CCOC(=O)OC1=C(c2c(C)cc(C)cc2C)C(=O)C(CC(C)=NOC)C1 (stereo not drawn) [1-146]			5 (Herbicidal ratio of 90% or more (almost completely withered))
CCc1cc(-n2cc(Cl)cn2)cc(C)c1C1=C(O)CC(CC(C)=NOC)C1=O (mixture of isomers) [6-005]	3 (Herbicidal ratio of 40% or higher and lower than 70%)		
CON=C(C)CC1CC(OCC#N)=C(c2c(C)cc(C)cc2C)C1=O (stereo not drawn) [1-013]	0 (Herbicidal ratio of 5% or lower (almost no effect))		
CC#Cc1cc(C)c(C2=C(O)CC(CC(C)=NOC)C2=O)c(C)c1 (mixture of isomers) [6-009]	0 (Herbicidal ratio of 5% or lower (almost no effect))		
CCC(=O)CCC1CC(O)=C(c2c(C)cc(C)cc2C)C1=O (stereo not drawn) [5-001]	0 (Herbicidal ratio of 5% or lower (almost no effect))		
CON=C(C)CC1CC(OC(=O)c2ccccc2OC(F)(F)F)=C(c2c(C)cc(C)cc2C)C1=O (stereo not drawn) [1-155]	5 (Herbicidal ratio of 90% or more (almost completely withered))		
CON=C(C)CC1CC(OC(=O)OC)=C(c2c(C)cc(C)cc2C)C1=O (stereo not drawn) [1-014]	5 (Herbicidal ratio of 90% or more (almost completely withered))		
COCC(=O)CC1CC(O)=C(c2c(C)cc(C)cc2C)C1=O (stereo not drawn) [2-007]	5 (Herbicidal ratio of 90% or more (almost completely withered))		
CON=C(C)CC1CC(O)=C(c2c(C)cc(C#CC3CC3)cc2C)C1=O (mixture of isomers) [6-010]	5 (Herbicidal ratio of 90% or more (almost completely withered))		
COCCOC(=O)OC1=C(c2c(C)cc(C)cc2C)C(=O)C(CC(C)=NOC)C1 (stereo not drawn) [1-147]			3 (Herbicidal ratio of 40% or higher and lower than 70%)
CON=C(C)CC1CC(OC(=O)N2CCCC2)=C(c2c(C)cc(C)cc2C)C1=O (stereo not drawn) [1-150]			0 (Herbicidal ratio of 5% or lower (almost no effect))
Cc1cc(C)c(C2=C(O)CC(CC(=O)C3CC3)C2=O)c(C)c1 (stereo not drawn) [2-017]	5 (Herbicidal ratio of 90% or more (almost completely withered))		
